Measurements: patent US20240293413A1, “COMPOUND AND METHOD FOR TREATING CHEMOTHERAPY-RELATED GASTROINTESTINAL SIDE EFFECTS” (ONQUALITY PHARMACEUTICALS CHINA LTD., priority 2021, published 2024)

Assays:
Type in all cases: in vivo
[1] = system: Chemotherapeutic agent-caused constipation models of Balb/c mice; assay: Examples 272-342 (Table 5): oral CDK inhibitor, relief of constipation caused by a chemotherapeutic agent;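 note: percent of treated mice relieved versus chemotherapy group by feces reduction rate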
Outline: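 Balb/c mice, 10 per group: control, chemotherapeutic agent alone, or intragastric CDK inhibitor followed by the chemotherapeutic agent. Feces produced within 3 hours were recorded daily, and feces reduction rate (%) was calculated relative to the control group.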

[2] = system: diarrhea caused by a chemotherapeutic agent in Balb/c mice; assay: Examples 343-381 (Table 6): oral versus intravenous CDK inhibitor, relief of diarrhea caused by a chemotherapeutic agent;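 for Relative remission rate: percent of treated mice whose diarrhea grade fell below chemotherapy-group average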
Outline: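 Balb/c mice (10 per group) received the CDK inhibitor orally or by tail-vein injection, or vehicle, followed by a chemotherapeutic agent or its solvent. Diarrhea grade was scored daily.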

[3] = system: constipation caused by a chemotherapeutic agent in Balb/c mice; assay: Examples 406-443 (Table 8): various administration modes of the CDK inhibitor, relief of constipation caused by a chemotherapeutic agent;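 for Relative remission rate of oral administration: percent of treated mice relieved versus chemotherapy group by feces reduction rate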;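 for Relative remission rate of other administration mode: percent of treated mice relieved versus chemotherapy group by feces reduction rate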
Outline: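 Balb/c mice (10 per group) received the CDK inhibitor orally, intravenously via the tail vein, intraperitoneally, intramuscularly, or topically on shaved abdominal skin, followed by a chemotherapeutic agent; vehicle groups served as controls. Feces amount over 3 h was recorded daily. Feces reduction rate was calculated relative to the control group.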

## CN(C)C(=O)c1cc2cnc(Nc3ccc(N4CCNCC4)cn3)nc2n1C1CCCC1 [Ribociclib]
[1]; Example 294, Fluorouracil (5-Fu) intravenous injection 225 mg/kg single, CDK inhibitor oral 150 mg/kg single, 0.5 h before, cycle 7 days
  Relative remission rate: 50%
[1]; Example 302, Oxaliplatin intravenous injection 20 mg/kg single, CDK inhibitor oral 150 mg/kg single, 1 h before, cycle 8 days
  Relative remission rate: 50%
[1]; Example 310, Irinotecan (CPT-11) oral administration 300 mg/kg single, CDK inhibitor oral 100 mg/kg single, 20 h before, cycle 11 days
  Relative remission rate: 50%
[1]; Example 325, Gemcitabine and paclitaxel intravenous injection 60 (G) 10 (P) mg/kg single, CDK inhibitor oral 125 mg/kg single, 0.5 h before, cycle 8 days
  Relative remission rate: 50%
[1]; Example 336, Methotrexate (MTX) intravenous injection 300 mg/kg single, CDK inhibitor oral 125 mg/kg single, 0.5 h before, cycle 7 days
  Relative remission rate: 40%
[1]; Example 337, Methotrexate (MTX) intravenous injection 300 mg/kg single, CDK inhibitor oral 125 mg/kg single, 4 h before, cycle 7 days
  Relative remission rate: 40%
[1]; Example 338, Methotrexate (MTX) intravenous injection 300 mg/kg single, CDK inhibitor oral 125 mg/kg single, 8 h before, cycle 7 days
  Relative remission rate: 50%
[1]; Example 339, Methotrexate (MTX) intravenous injection 300 mg/kg single, CDK inhibitor oral 125 mg/kg single, 12 h before, cycle 7 days
  Relative remission rate: 30%
[1]; Example 340, Methotrexate (MTX) intravenous injection 300 mg/kg single, CDK inhibitor oral 125 mg/kg single, 24 h before, cycle 7 days
  Relative remission rate: 60%
[1]; Example 341, Methotrexate (MTX) intravenous injection 300 mg/kg single, CDK inhibitor oral 125 mg/kg single, 48 h before, cycle 7 days
  Relative remission rate: 0%
[2]; Example 352, Etoposide and cisplatin intraperitoneal injection 50 (E) 5 (Cis) mg/kg single, CDK inhibitor intravenous injection 125 mg/kg single, 0.5 h before, cycle 7 days
  Relative remission rate: 10%
[2]; Example 352, Etoposide and cisplatin intraperitoneal injection 50 (E) 5 (Cis) mg/kg single, CDK inhibitor oral 125 mg/kg single, 0.5 h before, cycle 7 days
  Relative remission rate: 40%
[2]; Example 353, Etoposide and cisplatin intraperitoneal injection 50 (E) 5 (Cis) mg/kg single, CDK inhibitor intravenous injection 125 mg/kg single, 4 h before, cycle 7 days
  Relative remission rate: 10%
[2]; Example 353, Etoposide and cisplatin intraperitoneal injection 50 (E) 5 (Cis) mg/kg single, CDK inhibitor oral 125 mg/kg single, 4 h before, cycle 7 days
  Relative remission rate: 40%
[2]; Example 354, Etoposide and cisplatin intraperitoneal injection 50 (E) 5 (Cis) mg/kg single, CDK inhibitor intravenous injection 125 mg/kg single, 8 h before, cycle 7 days
  Relative remission rate: 10%
[2]; Example 354, Etoposide and cisplatin intraperitoneal injection 50 (E) 5 (Cis) mg/kg single, CDK inhibitor oral 125 mg/kg single, 8 h before, cycle 7 days
  Relative remission rate: 60%
[2]; Example 355, Etoposide and cisplatin intraperitoneal injection 50 (E) 5 (Cis) mg/kg single, CDK inhibitor intravenous injection 125 mg/kg single, 12 h before, cycle 7 days
  Relative remission rate: 20%
[2]; Example 355, Etoposide and cisplatin intraperitoneal injection 50 (E) 5 (Cis) mg/kg single, CDK inhibitor oral 125 mg/kg single, 12 h before, cycle 7 days
  Relative remission rate: 60%
[2]; Example 356, Etoposide and cisplatin intraperitoneal injection 50 (E) 5 (Cis) mg/kg single, CDK inhibitor intravenous injection 125 mg/kg single, 24 h before, cycle 7 days
  Relative remission rate: 10%
[2]; Example 356, Etoposide and cisplatin intraperitoneal injection 50 (E) 5 (Cis) mg/kg single, CDK inhibitor oral 125 mg/kg single, 24 h before, cycle 7 days
  Relative remission rate: 50%
[2]; Example 359, Carboplatin (CBP) intraperitoneal injection 120 mg/kg single, CDK inhibitor intravenous injection 200 mg/kg single, 0.5 h before, cycle 10 days
  Relative remission rate: 20%
[2]; Example 359, Carboplatin (CBP) intraperitoneal injection 120 mg/kg single, CDK inhibitor oral 200 mg/kg single, 0.5 h before, cycle 10 days
  Relative remission rate: 60%
[2]; Example 360, Carboplatin (CBP) intraperitoneal injection 120 mg/kg single, CDK inhibitor intravenous injection 200 mg/kg single, 4 h before, cycle 10 days
  Relative remission rate: 20%
[2]; Example 360, Carboplatin (CBP) intraperitoneal injection 120 mg/kg single, CDK inhibitor oral 200 mg/kg single, 4 h before, cycle 10 days
  Relative remission rate: 80%
[2]; Example 361, Carboplatin (CBP) intraperitoneal injection 120 mg/kg single, CDK inhibitor intravenous injection 200 mg/kg single, 8 h before, cycle 10 days
  Relative remission rate: 10%
[2]; Example 361, Carboplatin (CBP) intraperitoneal injection 120 mg/kg single, CDK inhibitor oral 200 mg/kg single, 8 h before, cycle 10 days
  Relative remission rate: 60%
[2]; Example 362, Carboplatin (CBP) intraperitoneal injection 120 mg/kg single, CDK inhibitor intravenous injection 200 mg/kg single, 12 h before, cycle 10 days
  Relative remission rate: 10%
[2]; Example 362, Carboplatin (CBP) intraperitoneal injection 120 mg/kg single, CDK inhibitor oral 200 mg/kg single, 12 h before, cycle 10 days
  Relative remission rate: 60%
[2]; Example 363, Carboplatin (CBP) intraperitoneal injection 120 mg/kg single, CDK inhibitor intravenous injection 200 mg/kg single, 24 h before, cycle 10 days
  Relative remission rate: 10%
[2]; Example 363, Carboplatin (CBP) intraperitoneal injection 120 mg/kg single, CDK inhibitor oral 200 mg/kg single, 24 h before, cycle 10 days
  Relative remission rate: 80%
[2]; Example 376, Gemcitabine (GEM) oral administration 300 mg/kg single, CDK inhibitor intravenous injection 100 mg/kg single, 24 h before, cycle 8 days
  Relative remission rate: 20%
[2]; Example 376, Gemcitabine (GEM) oral administration 300 mg/kg single, CDK inhibitor oral 100 mg/kg single, 24 h before, cycle 8 days
  Relative remission rate: 60%
[2]; diarrhea caused by etoposide, etoposide in combination with cisplatin, carboplatin, gemcitabine, gemcitabine in combination with carboplatin, and topotecan, oral administration has the most significant effect
  relief of diarrhea by oral administration and injection administration: effectively relieve diarrhea
[3]; Example 424, Carboplatin intraperitoneal injection 120 mg/kg single, CDK inhibitor intraperitoneal injection 200 mg/kg single, 0.5 h before, cycle 10 days
  Relative remission rate of other administration mode: 10%
[3]; Example 424, Carboplatin intraperitoneal injection 120 mg/kg single, CDK inhibitor oral 200 mg/kg single, 0.5 h before, cycle 10 days
  Relative remission rate of oral administration: 20%
[3]; Example 425, Carboplatin intraperitoneal injection 120 mg/kg single, CDK inhibitor intraperitoneal injection 200 mg/kg single, 4 h before, cycle 10 days
  Relative remission rate of other administration mode: 10%
[3]; Example 425, Carboplatin intraperitoneal injection 120 mg/kg single, CDK inhibitor oral 200 mg/kg single, 4 h before, cycle 10 days
  Relative remission rate of oral administration: 30%
[3]; Example 426, Carboplatin intraperitoneal injection 120 mg/kg single, CDK inhibitor intraperitoneal injection 200 mg/kg single, 8 h before, cycle 10 days
  Relative remission rate of other administration mode: 20%
[3]; Example 426, Carboplatin intraperitoneal injection 120 mg/kg single, CDK inhibitor oral 200 mg/kg single, 8 h before, cycle 10 days
  Relative remission rate of oral administration: 50%
[3]; Example 427, Carboplatin intraperitoneal injection 120 mg/kg single, CDK inhibitor intraperitoneal injection 200 mg/kg single, 12 h before, cycle 10 days
  Relative remission rate of other administration mode: 20%
[3]; Example 427, Carboplatin intraperitoneal injection 120 mg/kg single, CDK inhibitor oral 200 mg/kg single, 12 h before, cycle 10 days
  Relative remission rate of oral administration: 50%
[3]; Example 428, Carboplatin intraperitoneal injection 120 mg/kg single, CDK inhibitor intraperitoneal injection 200 mg/kg single, 24 h before, cycle 10 days
  Relative remission rate of other administration mode: 10%
[3]; Example 428, Carboplatin intraperitoneal injection 120 mg/kg single, CDK inhibitor oral 200 mg/kg single, 24 h before, cycle 10 days
  Relative remission rate of oral administration: 40%
[3]; Example 435, Gemcitabine oral administration 300 mg/kg single, CDK inhibitor local administration 100 mg/kg single, 24 h before, cycle 8 days
  Relative remission rate of other administration mode: 20%
[3]; Example 435, Gemcitabine oral administration 300 mg/kg single, CDK inhibitor oral 100 mg/kg single, 24 h before, cycle 8 days
  Relative remission rate of oral administration: 50%
[3]; constipation caused by doxorubicin, etoposide, etoposide plus cisplatin, carboplatin, gemcitabine, gemcitabine plus carboplatin, under certain conditions, oral most significant
  improvement of constipation by oral administration, intraperitoneal injection, intramuscular injection, local administration: can significantly improve constipation
